Measurements reported in paper PMC8010219, “Molecular basis for the interaction of cellular retinol binding protein 2 (CRBP2) with nonretinoid ligands” (Journal of Lipid Research, 2021).
Residue numbers refer to the chain shown, from its start. Like-named read-outs stand apart in the source and are kept apart here.

How the values were obtained:
human CRBP2 [1] = target: T1, human CRBP2 (Homo sapiens, UniProt P50120); assay: Chromophore (atROL) replacement fluorescence titration of holo-CRBP2; type: binding; details: for Kd: holo-CRBP2 titrated with ligand, 25°C, pH 7.4, average of at least three independent titrations, mean ± SD; for fold decrease in affinity (increase in Kd) as compared with 2-AG: ratio of Kd values versus 2-AG
T1 construct: inferred from the Ni-NTA purification; made in house; host or cells: Escherichia coli BL21(DE3)
T1 sequence (P50120 1-134): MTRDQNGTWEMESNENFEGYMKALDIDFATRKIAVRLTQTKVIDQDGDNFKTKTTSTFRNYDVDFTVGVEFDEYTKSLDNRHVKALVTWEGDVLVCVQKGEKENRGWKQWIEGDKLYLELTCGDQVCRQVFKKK
Method: (§1) The chromophore replacement assay was performed as described by Silvaroli et al. ([12]). CRBP2 in complex with atROL was excited with photons at a wavelength of 285 nm. Fluorescence emission was monitored at 350 and 480 nm. Titration with an alternative ligand causes liberation of atROL from the binding pocket and lack of fluorescence resonance energy transfer between the tryptophan residues and the retinoid moiety. The net effect is decrease in the fluorescence signal at 480 nm and concomitant increase at 350 nm (Fig. 1A, B). The experiments were performed on PerkinElmer Life Science LS55 spectrofluorometer at 25°C, using a 1 cm quart cuvette. Three microliters of buffer, 67 mM phosphate-buffered saline (pH 7.4%), 5% glycerol (v/v) containing 1 μg/ml of CRBP2 were dispensed into the cuvette. Increasing concentrations of tested compounds were delivered in acetonitrile. […] The obtained fluorescence spectra corrected for the background. Analysis of the changes in the maximum emission values at the different concentrations of ligands was used to calculate Kd values using the saturation single ligand binding model (SigmaPlot 11 software package; Systat Software). Each Kd listed in Table 1 represents an average value obtained from at least three independent titrations.

human CRBP2 [2] = target: T1, human CRBP2; assay: X-ray crystal structures of CRBP2 in complex with ligands (enantiomer seen in binding pocket); details: racemic mixture used for crystallization
Method: The crystallization conditions were identical to those published by Lee et al. ([9]). Human CRBP2 in complexes with nonretinoid ligands were crystallized using the sitting drop vapor diffusion method. Prior to setting up crystallization drops, CRBP2 (9 mg/ml) was incubated with 50 μM of ligand in 10 mM Tris-HCl (pH 8.0) and 150 mM NaCl for 20 min on ice. Protein samples were mixed in a 1:1 ratio with 1 μl of 0.1 M Tris-HCl (pH 8%) and 22–28% polyethylene glycol 3350. The wells were sealed and stored at room temperature. Crystals were collected, cryoprotected in 10% glycerol, 10% polyethylene glycol 2000 (v/v), and flash frozen in liquid nitrogen.
X-ray diffraction data were collected at the Advanced Photon Source Northeastern Collaborative Access Team 24-ID-C and 24-ID-E beamlines. Data reduction was performed using iMosflm software package ([17]). The structures were solved by molecular replacement with PHASER_MR ([18]) and the refined model of CRBP2 [Protein Data Bank (PDB) accession code: 6BTI] as a search model. Adjustments to the protein model were made with COOT ([19]), and the initial model was refined with PHENIX ([20]). […] The coordinates and structure factors for each of the structure analyzed in this report were deposited in the PDB under the following accession codes: 7JVG, 7JVY, 7JWD, 7JWR, 7K3I, 7JX2, and 7JZ5 (Table 2).

human CRBP2 [3] = target: T1, human CRBP2; parameters: method as in PMID 32195347; details: holo-CRBP2 titrated with ligand, cited from earlier work
CRBP2^T51I/V62M = target: T2, CRBP2^T51I/V62M (Homo sapiens, UniProt P50120, T52I/V63M); assay: Chromophore (atROL) replacement fluorescence titration of the mutant protein; type: binding
T2 construct: made in house; host or cells: Escherichia coli BL21(DE3)
T2 sequence (P50120 1-134 T52I/V63M): T1 sequence (P50120 1-134) with T52I, V63M
Source text: To introduce substitute mutations T51/I and V62/M, cDNA of CRBP2 was cloned into pCR 2.1 vector (Thermo Fisher Scientific). The mutations were introduced by PCR using 5’ phosphorylated primers of the following sequences: T51/I: forward, […]; reverse, […]; V62/M: forward, […]; reverse, […]. The presence of desired substitutions was verified by sequencing. To obtain mutated proteins, their cDNAs harboring these changes were cloned into pET3b vector and expressed and purified as described above.
as §1, with “cuvette.” for “cuvette. Increasing concentrations of tested compounds were delivered in acetonitrile.”, “Analysis of the changes in the maximum emission values at the different concentrations of ligands was used to calculate Kd values using the saturation single ligand binding model (SigmaPlot 11 software package; Systat Software). Each Kd listed in Table 1 represents an average value obtained from at least three independent titrations.” left out

CRBP1 = target: CRBP1; parameters: method as in PMID 27830500; details: atROL binding to CRBP1; cited from earlier work

With `CCCCCCCCCCCCCCCCCC(=O)OC(CO)CO` [2-SG, 2-Stearoyl glycerol] the Kd (human CRBP2 [1]) was 54.8 ± 9.8 nM and the “fold decrease in affinity (increase in Kd) as compared with 2-AG” value (human CRBP2 [1]) was 2 fold.

Compound `CCCCCCCCCCCCCCCC(=O)OC(CO)CO` [2-PG, 2-Palmitoyl glycerol] has a Kd (human CRBP2 [1]) of 51.2 ± 7.7 nM.

In the case of `CCCCCCCCCCCCCCCCOCC(O)CO` (stereo not drawn) [1-O-HG, 1-O-hexadecyl glycerol], the Kd (human CRBP2 [1]) is reported as 153 ± 7.3 nM.

For `CCCCC/C=C\C/C=C\C/C=C\C/C=C\CCCC(=O)OCC(O)CO` (stereo not drawn) [1-AG, 1-Arachidonoyl glycerol], the “enantiomer exclusively present in the binding pocket (electron density)” value (human CRBP2 [2]) is listed as “S-enantiomer” and the Kd (human CRBP2 [3]) is listed as 37.9 ± 3.3 nM.

`CCCCC/C=C\C/C=C\CCCCCCCC(=O)OCC(O)CO` (stereo not drawn) [1-LG, 1-Linoleoyl glycerol] showed a Kd (human CRBP2 [1]) of 97.1 ± 27.6 nM.

For `CCCCC/C=C\C/C=C\C/C=C\C/C=C\CCCC(=O)OC(CO)CO` [2-AG, 2-Arachidonoyl glycerol], the Kd (CRBP2^T51I/V62M; CRBP2 T51I/V62M double mutant) is given as 447 ± 46.1 nM, the “fold decrease in the affinity at the mutant” value (CRBP2^T51I/V62M; CRBP2^T51I/V62M versus WT CRBP2) is given as “over 16 fold” and the Kd (human CRBP2 [3]) is given as 27.1 ± 2.5 nM.

In the case of `CCCCC/C=C\C/C=C\CCCCCCCC(=O)OC(CO)CO` [2-LG, 2-Linoleoyl glycerol], the Kd (human CRBP2 [3]; read-out: Kd) is listed as 40 ± 4.4 nM.

In the case of `CCCCCCCC/C=C\CCCCCCCC(=O)OC(CO)CO` [2-OG, 2-Oleoyl glycerol], the Kd (human CRBP2 [3]; read-out: Kd) is listed as 65.4 ± 4.4 nM.

`CCCCC/C=C\C/C=C\C/C=C\C/C=C\CCCCOC(CO)CO` [2-AGE, 2-Arachidonoyl glycerol ether] gave a Kd (human CRBP2 [1]) of 45.7 ± 2.7 nM.

With `CCCCCCCCCCCC(=O)OC(CO)CO` [2-LaG, 2-Lauroyl glycerol] the Kd (human CRBP2 [1]) was 172 ± 8.8 nM and the “fold decrease in affinity (increase in Kd) as compared with 2-AG” value (human CRBP2 [1]) was “over 6 fold”.

For `CC1=C(/C=C/C(C)=C/C=C/C(C)=C/CO)C(C)(C)CCC1` [atROL, all-trans-retinol], the Kd (CRBP1) is given as roughly 10 nM.

For `CCCCCCCCCC(=O)OCC(O)CO` (stereo not drawn) [1-DG, 1-Decanoyl glycerol], the Kd (human CRBP2 [1]) was 780 ± 86.5 nM and the “fold decrease in affinity (increase in Kd) as compared with 2-AG” value (human CRBP2 [1]) was 29 fold.

With `CCCCCCCCCCCCCCCCCCCC(=O)OCC(O)CO` (stereo not drawn) [1-ArG, 1-Arachidoyl glycerol] the Kd (human CRBP2 [1]) was 133 ± 33.1 nM and the “fold decrease in affinity (increase in Kd) as compared with 2-AG” value (human CRBP2 [1]) was roughly 5 fold.

For `CCCCC/C=C\C/C=C\C/C=C\C/C=C\CCCC(=O)SCC(O)CO` (stereo not drawn) [1-ASG, Arachidonoyl-1-thio-glycerol], the “fold increase of the Kd value on substitution of the ester group with a thioester bond” value (human CRBP2 [1]; as compared with 1-AG) was roughly 2 fold, the Kd (human CRBP2 [1]) was 89.3 ± 14.3 nM and the “enantiomer exclusively present in the binding pocket (electron density)” value (human CRBP2 [2]) was “R-enantiomer”.

For `CCCCC/C=C\C/C=C\C/C=C\C/C=C\CCCC(=O)NCCO` [AEA, Arachidonoyl ethanolamide], the “fold decrease in affinity (increase in Kd) as compared with 2-AG” value (human CRBP2 [1]) is given as roughly 25 fold and the Kd (human CRBP2 [3]; read-out: Kd) is given as 663 ± 24 nM.

With `CCCCC/C=C\C/C=C\C/C=C\C/C=C\CCCCCC(=O)O` [ADA, Docosatetraenoic acid] the Kd (human CRBP2 [1]) was 217 ± 14.4 nM and the “fold decrease in affinity (increase in Kd) as compared with 2-AG” value (human CRBP2 [1]) was “eight times higher”.
